This note sets out measurements from US20230067926A1, “SYSTEMS AND METHODS FOR MONITORING PLATELET ACTIVATION” (The Regents of the University of Michigan, priority 2021, published 2023).

Experiment [1] concerns activated platelets in whole blood. The experiment is described as follows: PDA liposome-9F9 microarray detection of activated platelets in whole blood. Type of experiment: cell-based, human.
Experimental: To fabricate the PDA liposome Microarray, the liposomes were covalently immobilized on amine-modified glass slides through the amine-epoxy chemistry. 0.5 mM PDA-epoxy liposome solution was spotted on amine-coated glass slides with a manual microarrayer (VP 475, V&P scientific, INC) and was incubated at 5° C. for 24 hrs to prevent fast drying of the spotted solution. After removing the unbound liposomes by rinsing with 5 mM of pH 8 HEPES buffer, the PDA liposome-spotted slides were incubated with 0.06 mg/ml of 9F9 antibody in 5 mM of pH 8 HEPES buffer for 1 hr. After removing the unbound antibodies by rinsing with 5 mM of pH 8 HEPES buffer. […]
Detection of Activated Platelet with PDA Liposome Microarray. […] After 20 mins of incubation, fluorescence microscope images were obtained on Olympus BX 71 microscope equipped with a mercury lamp and a cut-off filter of 540 nm excitation and 600 nm emission. For fluorescence signal intensity measurement, the fabricated PDA liposome-9F9 microarray was placed on top of a 96-well plate and the combined substrates were inserted into a plate reader. Fluorescence emission intensities at 634 nm of total 120 microarray spots from three different devices were individually measured by using the excitation wavelength of 548 nm. […]
Experiment [2] relates to collagen and epinephrine stimulated human platelets. The experiment is described as follows: cells. Particulars: Platelet, read-out: IC50 of inhibition of collagen-stimulated platelet activation.
Experimental: Fluorescence-activated Cell Sorting Analysis. […] Collagen (40 μg/ml) was then added (4 μl) and incubated for 2 min at room temperature in all tubes. Platelet activation was measured by using 20 μl of the anti-9F9 antibody-FITC and 10 μl of the constitutive platelet marker, anti-CD61-PE (Phycierythrin). As a control for the anti-9F9 antibody, 10 μl of the isotype control, anti-mouse IgG1-FITC, was used with 10 μl of anti-CD61-PE in a separate tube. The antibodies were incubated at room temperature in the dark for 15 minutes. After the incubation, 700 μl of 1% formalin/dPBS was added to each tube and stored at 4° C. for up to 24 hrs post fixing until ready to run the fluorescence-activated cell sorting (FACS) analysis on a FACSCalibur flow cytometer (Beckton Dickenson San Jose, Calif.). CellQuest software (Beckton Dickenson San Jose, Calif.) was employed for the data analysis.
Cell populations were identified for data collection by their log forward scatter (FSC) and log side scatter (SSC) light profiles. […] Mean fluorescence intensity (MFI) of the anti-9F9 immunostaining was quantitated by a FITC (FL1) versus PE (FL2) log plot analysis. […] The adjusted WI was expressed as the geometric mean channel fluorescence minus the appropriate isotype control. The platelet reactivity index (PRI) was calculated by the following equation: […]

As a reminder, the IC50 is the point on the concentration scale where inhibition reaches its midpoint. Regarding `CCCCS(=O)(=O)N[C@@H](Cc1ccc(OCCCCC2CCNCC2)cc1)C(=O)O` [Tirofiban], the “limit of detection of Tirofiban in the sample (fluorescence signal decrease)” value in experiment [1] (whole blood with collagen, 20 mins incubation, PDA microarray fluorescence (FIG. 3)) is 0.16 µM. In experiment [2], the IC50 was approximately 1.5 pM.
Turning to collagen, the “red fluorescence intensity with added collagen relative to device without it” value in experiment [1] (whole blood samples with and without 40 mg/ml of collagen, 20-min incubation (FIG. 2)) is 2.8 times.
